Results published in patent publication US8969542B2, “HPV polyepitope constructs and uses thereof” (priority 2007, dated 2015).
pIC50: −log10 of the molar value. Where no end group is shown, it is not given here.

Key:
[1] = biological target: HLA A2601 (Homo sapiens, UniProt P04439, A114D/A173T/A270S/D101N/D185E/E277Q/E87N/F33Y/G231S/I121R/I218V/K168Q/L180W/L300P/L318F/P208A/P217A/Q86R/Q94H/R138Q/S129P/T187R/T323A/T345S/V100A/V358M); experiment: HLA class I competition binding assay using soluble HLA
[2] = biological target: HLA A2902 (Homo sapiens, UniProt P04439, A270S/D101N/D185E/E176V/E277Q/E87Q/F33T/G231S/H175R/I121M/I218V/I322F/K168Q/L300P/L318F/M331R/P208A/P217A/Q86L/T323A/T345S/V100A/V358M); experiment: as above
[3] = biological target: HLA A3002 (Homo sapiens, UniProt P04439, D101N/D140H/D185E/E176R/F33S/G80R/H175R/K168Q/Q94H/R138E/R41S/V100E); experiment: as above
[4] = biological target: HLA A0101 (Homo sapiens, UniProt P04439, A114D/A174V/A182V/D101N/D185E/E176A/E190D/L180R/Q94H/R68K/S129P/T187R/V100A/V91M/W191G); experiment: as above
[5] = biological target: DRB1*0701 (DR7) (Homo sapiens, UniProt P01903+P01911, A100R/A102G/A103Q/D57E/D86V/E43K/F76Y/K127E/L162R/M171V/P40G/Q125H/Q99D/R33Q/R42Y/R54Q/S133A/S66F/T210M/V115G/Y107V/Y59L/Y89S); experiment: biochemical
[6] = biological target: DRB1*1302 (DR6w19) (Homo sapiens, UniProt P01903+P01911, A100E/A169T/K41T/L162R/M171V/P40S/Q125H/Q178H/Q39Y/Q99D/R42S/S66N/T262R/V115G/W38E/Y61H); experiment: biochemical
[7] = biological target: DRB5*0101 (DR2w2beta-2) (Homo sapiens, UniProt P01903+Q30154); experiment: biochemical
[8] = biological target: DRB1*0404 (DR4w14) (Homo sapiens, UniProt P01903+P01911, A100R/A169T/F76Y/I96L/K127E/L162R/M171V/N62H/P40V/Q125Y/R42H/S133A/S149N/S66Y/V209L/W38E); experiment: biochemical
[9] = biological target: DRB4*0101 (DRw53) (Homo sapiens, UniProt P01903+P13762, G164S); experiment: biochemical
[10] = biological target: DRB1*1101 (DR5) (Homo sapiens, UniProt P01903+P01911, A100R/A169T/A87E/I96F/K41T/L162R/M171V/P40S/Q125H/Q178H/Q39Y/Q99D/R42S/S66Y/T262R/V115G/W38E); experiment: biochemical
[11] = biological target: DRB1*0901 (Homo sapiens, UniProt P01903+P01911, A100R/A103E/D57H/D86V/F55Y/F60I/F76Y/I96F/K127E/L162R/M171V/P40D/Q125H/Q99R/R33Q/R42F/S133A/S66N/T210M/V115G/W38K/Y107V/Y59G/Y89S); experiment: biochemical
[12] = biological target: DRB1*0802 (DR8w2) (Homo sapiens, UniProt P01903+P01911, A100R/A103L/A169T/F76Y/H45Y/I96F/K41T/L162R/M171V/P40S/Q125H/Q178H/Q39Y/Q99D/R218S/R42G/S66Y/V115G/W38E); experiment: biochemical
[13] = biological target: DRB1*0405 (DR4w15) (Homo sapiens, UniProt P01903+P01911, A100R/A169T/D86S/F76Y/I96L/K127E/L162R/M171V/N62H/P40V/Q125Y/R42H/S133A/S149N/S66Y/V115G/V209L/W38E); experiment: biochemical
[14] = biological target: DRB1*0301 (DR3) (Homo sapiens, UniProt P01903+P01911, A100K/A102G/A103R/A169T/F55Y/I96L/K41T/L162R/M171V/P40S/Q125H/Q178H/Q39Y/R42S/S66N/T106N/T262R/W38E/Y61H); experiment: biochemical
[15] = biological target: DRB1*0101 (DR1) (Homo sapiens, UniProt P01903+P01911, A100R/D57E/F55L/F60I/F76Y/I96L/L162R/M171V/P40L/Q125E/R42F/V115G/Y59C); experiment: biochemical
[16] = biological target: DRB1*0401 (DR4w4) (Homo sapiens, UniProt P01903+P01911, A100K/A169T/F76Y/I96L/K127E/L162R/M171V/N62H/P40V/Q125Y/R42H/S133A/S149N/S66Y/V115G/V209L/W38E); experiment: biochemical
[17] = biological target: DRB1*1501 (DR2w2beta-1) (Homo sapiens, UniProt P01903+P01911); experiment: biochemical

`C[C@@H](O)[C@H](NC(=O)CN)C(=O)NCC(=O)N[C@@H](CS)C(=O)N[C@@H](CC(N)=O)C(=O)NCC(=O)N[C@@H](Cc1c[nH]c2ccccc12)C(=O)N[C@@H](Cc1ccccc1)C(=O)N[C@@H](Cc1ccc(O)cc1)C(=O)O` [compound 23] gave a pIC50 [1] of 5.51, a pIC50 [2] of 6.94 and a pIC50 [3] of 8.04. For the same compound, the pIC50 [4] was 6.87.
`CC[C@H](C)[C@H](NC(=O)[C@H](Cc1c[nH]c2ccccc12)NC(=O)[C@H](CCC(=O)O)NC(=O)[C@@H]1CCCN1)C(=O)N[C@@H](CCC(N)=O)C(=O)N[C@@H](CCCNC(=N)N)C(=O)N[C@@H](CCC(N)=O)C(=O)N[C@H](C(=O)N[C@H](C(=O)N[C@@H](CC(C)C)C(=O)N[C@@H](CCC(N)=O)C(=O)N[C@@H](Cc1c[nH]cn1)C(=O)N[C@@H](CO)C(=O)N[C@@H](Cc1ccccc1)C(=O)N[C@@H](CC(N)=O)C(=O)O)C(C)C)[C@@H](C)O` [compound 90] showed a pIC50 [5] of less than 4.70.
`CC[C@H](C)[C@H](NC(=O)CNC(=O)[C@H](CCC(=O)O)NC(=O)[C@H](Cc1c[nH]cn1)NC(=O)[C@@H](NC(=O)[C@H](Cc1ccc(O)cc1)NC(=O)[C@H](Cc1ccc(O)cc1)NC(=O)[C@H](CC(C)C)NC(=O)CN)C(C)C)C(=O)N[C@@H](CCCNC(=N)N)C(=O)N[C@H](C(=O)N[C@@H](Cc1ccc(O)cc1)C(=O)N[C@@H](Cc1ccccc1)C(=O)N[C@H](C(=O)N[C@@H](CCC(N)=O)C(=O)O)C(C)C)[C@@H](C)O` [compound 93] was tested, and the pIC50 [6] was less than 4.70, the pIC50 [7] was 6.00 and the pIC50 [8] was less than 4.70. It also gave a pIC50 [9] of less than 4.70.
`CC[C@H](C)[C@H](N)C(=O)N[C@@H](CCCNC(=N)N)C(=O)N[C@H](C(=O)N[C@@H](CC(C)C)C(=O)N[C@@H](CCC(=O)O)C(=O)N[C@@H](CC(=O)O)C(=O)N[C@@H](CC(C)C)C(=O)N[C@@H](CC(C)C)C(=O)N[C@@H](CCSC)C(=O)NCC(=O)N[C@H](C(=O)N[C@@H](CC(C)C)C(=O)NCC(=O)N[C@H](C(=O)N[C@H](C(=O)O)C(C)C)[C@@H](C)CC)[C@@H](C)O)[C@@H](C)O` [compound 97] showed a pIC50 [10] of less than 4.70, a pIC50 [7] of less than 4.70 and a pIC50 [11] of less than 4.70. It also gave a pIC50 [12] of less than 4.70.
For `CC[C@H](C)[C@H](NC(=O)[C@H](Cc1c[nH]cn1)NC(=O)[C@H](C)NC(=O)[C@H](Cc1ccc(O)cc1)NC(=O)[C@H](CC(C)C)NC(=O)[C@@H](NC(=O)[C@H](Cc1ccccc1)NC(=O)[C@@H]1CCCN1C(=O)[C@H](CCC(N)=O)NC(=O)[C@@H](NC(=O)[C@H](CC(C)C)NC(=O)[C@@H](NC(=O)[C@H](CCCCN)NC(=O)[C@@H](N)Cc1ccccc1)[C@@H](C)O)[C@@H](C)CC)[C@@H](C)CC)C(=O)N[C@@H](CCC(N)=O)C(=O)O` [compound 98], the pIC50 [10] was 5.17.
`CC[C@H](C)[C@H](N)C(=O)N[C@@H](CCC(=O)O)C(=O)N[C@@H](Cc1ccccc1)C(=O)N[C@H](C(=O)N[C@H](C(=O)N[C@@H](Cc1ccccc1)C(=O)N[C@@H](CC(C)C)C(=O)NCC(=O)N[C@@H](C)C(=O)N[C@@H](CC(C)C)C(=O)N[C@@H](CCCCN)C(=O)N[C@@H](CO)C(=O)N[C@@H](Cc1ccccc1)C(=O)N[C@@H](CC(C)C)C(=O)N[C@@H](CCCCN)C(=O)O)[C@@H](C)O)[C@@H](C)CC` [compound 99] was tested, and the pIC50 [5] was less than 4.70, the pIC50 [11] was less than 4.70 and the pIC50 [13] was 5.44. The pIC50 [14] was less than 4.70 and the pIC50 [15] was 7.52.
For `CC[C@H](C)[C@H](NC(=O)[C@H](C)NC(=O)[C@H](CCCCN)NC(=O)[C@@H](N)Cc1c[nH]cn1)C(=O)N[C@@H](CCC(=O)O)C(=O)N[C@@H](CC(C)C)C(=O)N[C@@H](CCC(N)=O)C(=O)N[C@@H](CCSC)C(=O)N[C@@H](C)C(=O)N[C@@H](CC(C)C)C(=O)N[C@@H](CCC(N)=O)C(=O)NCC(=O)N[C@@H](CC(C)C)C(=O)N[C@@H](C)C(=O)N[C@@H](CCC(N)=O)C(=O)O` [compound 101], the pIC50 [16] was 7.30 and the pIC50 [9] was 8.52.
`CC(C)C[C@H](NC(=O)[C@H](CCC(N)=O)NC(=O)[C@H](CCC(N)=O)NC(=O)[C@@H](N)Cc1ccccc1)C(=O)N[C@@H](Cc1ccccc1)C(=O)N[C@@H](CC(C)C)C(=O)N[C@@H](CC(N)=O)C(=O)N[C@H](C(=O)N[C@@H](CC(C)C)C(=O)N[C@@H](CO)C(=O)N[C@@H](Cc1ccccc1)C(=O)N[C@H](C(=O)N[C@@H](CS)C(=O)N1CCC[C@H]1C(=O)N[C@@H](Cc1c[nH]c2ccccc12)C(=O)O)C(C)C)[C@@H](C)O` [compound 105] gave a pIC50 [12] of 5.05.
In the case of `CC[C@H](C)[C@H](N)C(=O)N[C@@H](CCCNC(=N)N)C(=O)N[C@H](C(=O)N[C@@H](CC(C)C)C(=O)N[C@@H](CCC(N)=O)C(=O)N[C@@H](CCC(=O)O)C(=O)N[C@@H](CC(C)C)C(=O)N[C@@H](CC(C)C)C(=O)N[C@@H](CCSC)C(=O)NCC(=O)N[C@@H](CO)C(=O)N[C@@H](Cc1ccccc1)C(=O)NCC(=O)N[C@H](C(=O)N[C@H](C(=O)O)C(C)C)[C@@H](C)CC)[C@@H](C)CC` [compound 112], the pIC50 [15] was 7.30.
For `CC(C)C[C@H](NC(=O)[C@H](CCC(N)=O)NC(=O)[C@H](CCC(N)=O)NC(=O)[C@H](CC(C)C)NC(=O)[C@@H](NC(=O)[C@H](CCCNC(=N)N)NC(=O)[C@@H](N)CC(C)C)[C@@H](C)O)C(=O)N[C@@H](Cc1ccccc1)C(=O)N[C@@H](CC(C)C)C(=O)N[C@@H](CO)C(=O)N[C@H](C(=O)N[C@@H](CC(C)C)C(=O)N[C@@H](CO)C(=O)N[C@@H](Cc1ccccc1)C(=O)N[C@H](C(=O)O)C(C)C)[C@@H](C)O` [compound 121], the pIC50 [10] was 5.78.
In the case of DWVMAIFGVNPTVAEGF [compound 114], the pIC50 [10] was 5.30, the pIC50 [7] was 6.41 and the pIC50 [11] was 4.75. The pIC50 [13] was 7.04, the pIC50 [12] was 5.37 and the pIC50 [14] was 5.43. The pIC50 [8] was 7.70 and the pIC50 [9] was 6.24.
For ISDYRHYCY [compound 5], the pIC50 [4] was 8.00.
In the case of NGWFYVEAVIDRQTG [compound 106], the pIC50 [5] was 5.84, the pIC50 [7] was 5.92 and the pIC50 [11] was 5.44. The pIC50 [13] was 6.75, the pIC50 [16] was 6.07 and the pIC50 [14] was 5.55. For the same compound, the pIC50 [15] was 5.73.
Work on QVDYYGLYY [compound 2] yielded a pIC50 [1] of 6.60, a pIC50 [3] of 6.80 and a pIC50 [4] of 8.57.
STDLRDHIDY [compound 3] was tested, and the pIC50 [1] was 6.12 and the pIC50 [4] was 6.95.
WKHIRLECVLMYKAR [compound 108] was tested, and the pIC50 [5] was 4.78, the pIC50 [10] was 7.09 and the pIC50 [7] was 6.39. The pIC50 [11] was 4.93, the pIC50 [13] was 7.15 and the pIC50 [16] was 6.58. For the same compound, the pIC50 [12] was 6.32, the pIC50 [17] was 6.87 and the pIC50 [14] was 6.84. It also gave a pIC50 [9] of 6.99.
